The target in one series is T1, UGT1A1 (Homo sapiens, UniProt P22309).
T1 construct: purchased BD Gentest Corp. (Woburn, MA, USA)
T1 sequence (P22309 26-533): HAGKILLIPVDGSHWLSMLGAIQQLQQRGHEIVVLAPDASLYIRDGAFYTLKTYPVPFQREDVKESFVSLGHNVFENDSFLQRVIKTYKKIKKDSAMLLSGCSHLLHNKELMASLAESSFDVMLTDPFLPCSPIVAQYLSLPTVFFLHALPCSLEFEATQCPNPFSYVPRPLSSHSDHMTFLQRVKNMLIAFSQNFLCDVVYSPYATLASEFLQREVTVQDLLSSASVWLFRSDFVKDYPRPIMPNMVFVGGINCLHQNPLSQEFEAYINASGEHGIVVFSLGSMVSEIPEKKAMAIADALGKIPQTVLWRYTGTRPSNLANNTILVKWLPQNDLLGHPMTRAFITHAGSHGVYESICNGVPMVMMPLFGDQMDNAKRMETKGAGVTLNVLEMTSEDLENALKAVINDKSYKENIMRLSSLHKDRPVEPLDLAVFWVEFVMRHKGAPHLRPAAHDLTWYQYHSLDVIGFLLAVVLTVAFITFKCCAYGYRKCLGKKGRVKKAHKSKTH
The series can be described thus: Inhibition of recombinant UGT1A1-catalyzed 4-MU glucuronidation. The class given is in vitro ADME. The protocol: (§1) 4-MU, a nonspecific probe substrate for UGT isoforms, was used to explore the inhibition of UGT isoforms by kurarinone. The mixture (200 μL total volume) contained recombinant UGTs (final concentrations: 0.125, 0.05, 0.025, 0.05, 0.025, 0.05, 0.05, 0.25, 0.05, and 0.2 mg/mL for UGT1A1, UGT1A3, UGT1A6, UGT1A7, UGT1A8, UGT1A9, UGT1A10, UGT2B4, UGT2B7, and UGT2B15, respectively), 5 mM UDPGA, 5 mM MgCl2, 50 mM Tris-HCl buffer (pH 7.4), and 4-MU in the absence or presence of various concentrations of kurarinone. The concentrations of 4-MU were as follows: 110 μM for UGT1A1 and UGT1A6, 1200 μM for UGT1A3 and UGT2B4, 15 μM for UGT1A7, 750 μM for UGT1A8, 30 μM for UGT1A9, 80 μM for UGT1A10, 350 μM for UGT2B7, 250 μM for UGT2B15, and 2000 μM for UGT2B17. Kurarinone was dissolved in methanol, and the final concentration of methanol was 0.5% (v/v). Reactions were initiated by adding UDPGA, and incubations were carried out at 37°C in a shaking waterbath for 60 min. The reactions were terminated by addition of 200 μL of ice-cold acetonitrile containing 7-hydroxycoumarin (100 μM) as the internal standard. The incubation mixture was then centrifuged at 20,000 ×g for 20 min to obtain the supernatant, and an aliquot of supernatant (20 μL) was transferred to an autoinjector vial for HPLC analysis.

A further series addresses T2, UGT1A6 (Homo sapiens, UniProt P19224).
T2 construct: purchased BD Gentest Corp. (Woburn, MA, USA)
T2 sequence (P19224 27-532): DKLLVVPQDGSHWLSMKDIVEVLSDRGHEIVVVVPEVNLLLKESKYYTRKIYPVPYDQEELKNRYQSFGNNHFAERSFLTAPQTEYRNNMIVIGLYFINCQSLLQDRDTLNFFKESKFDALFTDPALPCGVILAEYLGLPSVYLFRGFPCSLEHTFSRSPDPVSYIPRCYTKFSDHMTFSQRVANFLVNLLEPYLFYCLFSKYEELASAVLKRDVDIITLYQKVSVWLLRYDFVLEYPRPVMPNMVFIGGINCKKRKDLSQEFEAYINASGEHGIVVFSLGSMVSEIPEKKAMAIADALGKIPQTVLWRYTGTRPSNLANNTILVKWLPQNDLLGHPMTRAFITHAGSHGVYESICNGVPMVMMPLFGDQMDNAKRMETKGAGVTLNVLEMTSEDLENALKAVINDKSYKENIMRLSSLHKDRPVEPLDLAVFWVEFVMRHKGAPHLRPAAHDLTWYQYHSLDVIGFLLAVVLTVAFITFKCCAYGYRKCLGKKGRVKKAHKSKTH
The series can be described thus: Inhibition of recombinant UGT1A6-catalyzed 4-MU glucuronidation. The class given is in vitro ADME. The conditions noted are these: recombinant UGT1A6, pH 7.4, probe 4-MU (110 μM), 100 μM kurarinone, recombinant UGT. The protocol: as §1

A further series relates to CYP2C9. The series can be described thus: Inhibition of CYP2C9 activity (diclofenac probe) in RLMs. The class given is in vitro ADME. The note with it: rat, rat liver microsomes, probe diclofenac 10 μM, 100 μM kurarinone, 10 μM diclofenac. The protocol: (§2) Samples were prepared in a total volume of 200 μL, containing 0.3 mg/mL protein in human liver microsomes or 15 nM protein in recombinant human supersomes, probe substrates or 50 μM kurarinone, 10 mM MgCl2, 10 mM glucose-6-phosphate, and 1 unit/mL of glucose-6-phosphate dehydrogenase. The reactions were activated by adding NADPH following preincubation at 37°C for 5 min. The reactions were maintained at 37°C for 1 h and terminated by adding 200 μL ice-cold acetonitrile. The supernatant (10 μL) collected from the samples that were centrifuged (20,000 g, 20 min, 4°C) was injected into the HPLC system for analysis. Control incubations devoid of NADPH or kurarinone were performed parallelly to ensure that the produced metabolites were NADPH- or kurarinone-dependent.
RLMs were used to assess the inhibitory effects of kurarinone (100 μM) on six different human isoforms (CYP1A2, CYP2C9, CYP2D6, CYP2E1, CYP3A4, and CYP2C19). The probe substrates used in this experiment were 40 μM phenacetin for CYP1A2, 10 μM diclofenac for CYP2C9, 25 μM dextromethorphan for CYP2D6, 120 μM chlorzoxazone for CYP2E1, 35 μM testosterone for CYP3A4, and 20 μM (S)-mephenytoin for […] as described earlier. The reaction system has been described in Section 2.3. […]
A general note: Liver microsomes are a subcellular fraction often used to study metabolism.

For series [1], the system named is minipig liver microsomes (PLMs). The series can be described thus: Enzyme kinetics of P1 formation from kurarinone in PLMs. It counts as in vitro ADME. As to the method: as §2
Various concentrations of kurarinone (1–200 μM) were incubated with RLMs, MLMs, PLMs, RAMs, CYP1A2, and CYP2D6 to estimate kinetic parameters. The rest of the other conditions remained the same as described in Section 2.3. […] The apparent Km and Vmax values were calculated from nonlinear regression analysis of experimental data according to the Michaelis–Menten equation, and the results were represented graphically by Eadie–Hofstee plots. All incubations were carried out as triplicate independent experiments, and kinetic constants were recorded as mean ± SD.

Details of series [2]: method as in PMID 25703950. The note with it: rats, cited from earlier work.

The structures appear in SMILES notation.

Turning to `C=C(C)[C@H](CC=C(C)C)Cc1c(O)cc(OC)c2c1O[C@H](c1ccc(O)cc1O)CC2=O` [Kurarinone], on UGT1A1 (Dixon and Lineweaver–Burk plots), the “inhibition type against UGT1A1” value was “noncompetitive”. The inhibition (usually how much of the control response was suppressed) at 60 min, 100 μM is over 90% on UGT1A1 (human, recombinant UGT1A1, pH 7.4, probe 4-MU (110 μM), 100 μM kurarinone, 4-MU glucuronidation, recombinant UGT) and over 90% at UGT1A6. In addition, the IC50 – broadly, the concentration needed to halve the response being measured – at UGT1A1 (recombinant UGT1A1, 4-MU glucuronidation, read-out: IC50 against UGT1A1) was determined as 13.6 µM. In addition, at UGT1A1 (second plot of slopes from Lineweaver–Burk plots), the Ki – broadly, a measure of affinity in units of concentration, obtained from inhibition or displacement – is 13 µM. The inhibition at 1 h, 100 μM with CYP2C9 is over 90%. In series [1], the “Vmax of P1 formation” value stood at 8.46 ± 0.74 nmol·min^−1·mg^−1 protein. Besides, in series [1] (kurarinone 1–200 μM), the Km (usually the substrate concentration at which the rate is half of its maximum) was 49.9 ± 7.91 µM. Further, in series [2] (intravenous 10 mg/kg), the t1/2 is reported as 1.81 h. For the same compound, the Cmax (commonly the maximum level reached in the sampled fluid or tissue) in series [2] is on record as 1668.01 ng/mL.
